Publication PMC4686831, “Identification of an allosteric binding site for RORγt inhibition” (Nature Communications, 2015)

Assays:
RORγt-LBD [1] = molecular target: T1, RORγt-LBD (Homo sapiens, UniProt P51449); assay: RORγt-LBD SRC-1 cofactor FRET assay; type: biochemical
T1 construct: leader […]; made in house; host or cells: BL21(DE3) E. coli
T1 sequence (P51449 259-518): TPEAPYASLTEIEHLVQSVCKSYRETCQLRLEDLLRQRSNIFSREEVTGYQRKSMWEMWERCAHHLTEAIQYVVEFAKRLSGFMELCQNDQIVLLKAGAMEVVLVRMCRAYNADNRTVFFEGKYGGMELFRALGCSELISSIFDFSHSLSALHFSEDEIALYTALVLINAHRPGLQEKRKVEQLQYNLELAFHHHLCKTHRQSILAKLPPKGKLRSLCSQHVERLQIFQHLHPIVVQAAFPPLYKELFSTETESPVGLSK
Description: The potency of small-molecule RORγt ligands was then assessed by monitoring their effect on the association of a LXXLL-motif-containing SRC-1 peptide. Compound (10 mM dimethylsulphoxide (DMSO) stock) was serially diluted in threefold steps using an Agilent Bravo liquid handler. […] Compounds were allowed to incubate with receptor for 15 min and then 5 μl of peptide in detection buffer or detection buffer alone were added. Detection buffer (5 × ) consists of 50 mM Tris-HCL pH 7.0, 50 mM potassium chloride, 1 mM EDTA, 0.1% delipidated bovine serum albumin, 1 mM DTT and 20 nM streptavidin-APC (PerkinElmer). […] The plate was then incubated overnight at 4 °C. The following morning the plate was warmed to room temperature and read using an Envision plate reader (PerkinElmer). […] The per cent activity of each dilution was determined as the ratio of background corrected signal to the background corrected signal of wells receiving only DMSO. IC50 values were determined by fitting per cent activity data to a four-parameter logistic dose–response equation in GraphPad Prism (GraphPad Software).

[2] = system: IL-17 production in human PBMCs; assay: PBMC Th17 polarization and IL-17 production assay; type: cell-based; conditions: 96 h, 4 days, mean±s.d., read-out: hPBMC IL17A IC50
Description: Test compounds were prepared as 10 mM stocks in DMSO and serially diluted 1:3 to provide an eight-concentration titration. […] Stimulatory cytokines were added to final concentrations of 25 ng ml^−1 IL-1B, 10 ng ml^−1 IL-23, 0.5 ng ml^−1 IL-2 and 10 ng ml^−1 IL-6 (all cytokines from R&D Systems). In addition, T-Activator CD3/28 Dynabeads (Invitrogen) were added to a concentration of 100,000 beads per ml. The stimulated cells were immediately dispensed into the assay plate containing serially diluted compound at a volume of 200 μl cells per well. Cell plates were then incubated at 37 °C and 5% CO2 for 4 days. Culture media (100 μl) was collected from each well and IL-17 expression was measured by enzyme-linked immunosorbent assay (R&D Systems) according to the manufacturer's instructions. Cell viability was assessed by the addition of 100 μl of CellTiter-Glo (Promega) to each well of the cell assay plate followed by luminescence detection on an Envision plate reader (PerkinElmer).

RORγt-GAL4 = molecular target: T2, RORγt-GAL4 (Homo sapiens, UniProt P51449); assay: Chimeric RORγt-GAL4 luciferase reporter assay in HEK293T cells; type: cell-based; conditions: mean±s.d.
T2 construct: expressed in transfected cells; host or cells: HEK293T
T2 sequence (P51449 97-518): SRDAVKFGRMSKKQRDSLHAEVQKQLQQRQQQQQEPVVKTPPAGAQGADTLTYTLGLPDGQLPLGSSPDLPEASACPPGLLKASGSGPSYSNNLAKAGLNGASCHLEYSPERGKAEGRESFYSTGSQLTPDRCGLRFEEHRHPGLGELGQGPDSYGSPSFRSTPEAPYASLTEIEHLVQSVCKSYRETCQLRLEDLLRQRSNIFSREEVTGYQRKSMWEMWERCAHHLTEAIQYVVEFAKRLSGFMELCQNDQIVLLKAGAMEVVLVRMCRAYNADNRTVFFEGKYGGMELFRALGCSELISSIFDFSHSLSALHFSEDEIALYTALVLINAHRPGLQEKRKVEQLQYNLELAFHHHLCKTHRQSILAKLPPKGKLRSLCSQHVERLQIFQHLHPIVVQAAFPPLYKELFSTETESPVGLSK
Description: This vector, along with the GAL4 UAS-luciferase reporter vector pGL4.31 (Promega), was used to transfect HEK293T cells. […] Following transfection, cells were transferred to one T75 flask and incubated overnight at 37 °C and 5% CO2. […] Cells were collected and resuspended at 0.8 × 10^6 cells per ml in DMEM high-glucose media with 10% FBS. To each well of the plate was added 25 μl of cell suspension and the cells incubated overnight at 37 °C and 5% CO2. After 20–22 h, the plates were brought to room temperature and 25 μl of Steady-Glo luciferase reagent (Promega) was added to each well. The luminescent signal was measured on an Envision plate reader.

RORγt-LBD [3] = molecular target: T1, RORγt-LBD; assay: RORγt-LBD AlexaFluor-647-labelled MRL-871 competitive binding assay; conditions: 100 nM probe; mean±s.d.; read-out: MRL-871 AlexaFluor Probe Competition IC50
Description: The plate was then incubated for 15 min at room temperature. […] TR-FRET intensity in the presence of RORγt was corrected for background and the KD determined using the One-site specific binding equation in Graph Pad Prism. […] IC50 values were determined by fitting per cent activity data to a four-parameter logistic dose–response equation in GraphPad Prism.

CC1(C(=O)O)CC=C(c2nn(C(=O)c3c(Cl)cccc3C(F)(F)F)c3cccc(F)c23)CC1 (centres unmarked) [MRL-673]
weaker potency relative to MRL-367 (RORγt-LBD [1]; in both the biochemical and cellular assays): 10 fold
IC50 (RORγt-LBD [1]; mean±s.d., read-out: SRC1 Cofactor FRET IC50): 21.8 ± 6.7 nM
IC50 [2]: 142 ± 64 nM
IC50 (RORγt-GAL4): 279 ± 137 nM
IC50 (RORγt-LBD [3]): 26.4 ± 13 nM
